We go through four molecules from publication PMC5019375, “Characterization of Potent SMAC Mimetics that Sensitize Cancer Cells to TNF Family-Induced Apoptosis” (PLoS ONE, 2016).

SMILES strings stand for the structures. Where “and” joins values, the source holds several entries; their conditions need not be identical. Equal entries are not always repeated.

The subject of data set [1] is PC-3 prostate cancer cells. Kind of data set: Cytotoxicity assay, sensitization to TNF (CellTiter-Glo). As to conditions: for TNF EC50 / EC50: PC-3 cells, 10 nM TNF, 24 h, cell viability; for EC50: read-out: TNF EC50. Also noted: key to TNF EC50: IN: EC50 too weak to be determined. The data set is classed as cell-based, human. The protocol: (§1) Cellular cytotoxicity experiments were conducted in white 96-well flat bottom plates (Greiner Bio-One #655074). PC-3 prostate cancer cells were seeded into microtiter wells in 90 μL RPMI medium with 10% fetal calf serum and antibiotics at 5,000 cells per well, and then incubated overnight at 37°C with 5% CO2/95% air. The next day, compounds diluted into the same culture medium and added in 10 μL aliquots to achieve various final concentrations, maintaining a uniform total volume per well. Either TNF (at 10 nM final) or LT-α (at ~90 pM final) resuspended in 10 μL of RPMI with 10% fetal calf serum and antibiotics was added to wells or an equal volume of medium was applied for the control well. The plates were then further incubated for 24 h. Subsequently, cell viability was assessed by the addition of 25 μL per well of Cell-Titer-Glo reagent (Promega, Inc). Plates were read using a Luminoskan Ascent luminometer.
(§2) The cellular activity of cIAP1 and cIAP2 inhibitors was evaluated through experiments where cytotoxicity of a human prostate tumor cell line (PC-3) was assessed in the presence or absence of cytokines TNF and LT-α. The experimental approach we used was to provide TNF or LT-α at a fixed concentration, which by itself was non-cytotoxic, then titrate SMAC mimetics into the cell cultures. […] The compound series described in this work has been tested against a broad range of cell lines (data not shown and [23]) and single agent toxicity was only observed for SKOV3 ovarian tumor cells. This agrees with the findings of Varfolomeev, Vince and Lalaoui, respectively.
On the technique in general: In ATP-based viability assays light output follows the ATP content of the culture.

Data set [2] concerns the target cIAP2-BIR2 (Homo sapiens, UniProt Q13489). Kind of data set: FP competition assay, displacement of SMAC-rhodamine.
Description: (§4) Solutions for assessing SMAC-rhodamine binding to various BIR domains were empirically optimized. […] For cIAP1-BIR3, the assay buffer was 25 mM Hepes [pH 7.5] containing 40 mM β-glycerol phosphate, 1 mM TCEP, and 0.005% Tween 20, typically with 20 nM SMAC-rhodamine. For cIAP1-BIR2, cIAP2-BIR2 and cIAP2-BIR3, assays were performed in 25 mM Hepes [pH 7.5] containing 1 mM TCEP and 0.005% Tween 20, typically with 20 nM SMAC-rhodamine.
(§5) For cIAP1-BIR2, assays were conducted using 25 mM Hepes [pH 7.5] containing 1 mM TCEP, 0.005% Tween 20, ~1 μM cIAP1-BIR2, and 20 nM SMAC-rhodamine. For cIAP1-BIR3, assays were performed using the same buffered solution, except 40 mM β-glycerol phosphate was added and the cIAP1-BIR3 concentration was reduced to 50 nM. For cIAP2-BIR2, assays included a buffer containing 25 mM Hepes [pH 7.5] containing 1 mM TCEP, 0.005% Tween 20, 1 μM cIAP2-BIR2, and 20 nM SMAC-rhodamine. […] IC50 values were determined with a nonlinear fit using Prism software. Ki values were determined from the IC50 values using an online program developed by Nikolovska-Coleska et al. [26].
Data set [3] concerns the target cIAP1-BIR2 (Homo sapiens, UniProt Q13490). The data set is described as above.
Description: as §4, §5
Data set [4] relates to PC-3 prostate cancer cells. Put plainly: Cytotoxicity assay, sensitization to LT-α (CellTiter-Glo). The data set is classed as cell-based, human. Set-up: key to LT-α EC50: IN: EC50 too weak to be determined. The conditions noted are these: for LT-α EC50 / EC50: PC-3 cells, ~90 pM LT-α, 24 h, cell viability; for EC50: read-out: LT-α EC50. As to the method: as §1, §2
Data set [5] addresses cIAP2-BIR3 (Homo sapiens, UniProt Q13489). Put plainly: FP competition assay, displacement of SMAC-rhodamine.
Description: as §4, §5
Data set [6] deals with cIAP1-BIR3 (Homo sapiens, UniProt Q13490). The data set is described as above. As to conditions: cIAP1 BIR3 Ki, 25 mM Hepes pH 7.5, 1 mM TCEP, 0.005% Tween 20, 20 nM SMAC-rhodamine, 40 mM β-glycerol phosphate, ~50 nM protein; Ki calculated from IC50.
cIAP1-BIR3, sequence (Q13490 257-356): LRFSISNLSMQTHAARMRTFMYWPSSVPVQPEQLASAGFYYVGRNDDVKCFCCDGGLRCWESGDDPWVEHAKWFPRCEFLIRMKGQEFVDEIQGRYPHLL
Description: as §4, §5
Data set [7] concerns the target T1, myc-RIP1 binding to GST-cIAP1-BIR3 (Homo sapiens, UniProt Q13490).
T1 construct: purified GST-fusion proteins (GST-cIAP1-BIR3 or GST-cIAP2-BIR3) were added; made in house; host or cells: GST fusion: bacteria (as for the other recombinant proteins); myc-RIP1: transfected HEK293T cell lysate
Kind of data set: RIP1 binding, GST pull-down from HEK293T lysates. As to conditions: various concentrations, overnight, 4°C. The protocol:
(§3) To assess the impact of compounds on cIAP1 and cIAP2 binding to RIP1, 700,000 HEK293T cells were seeded into 100 mm cell-culture plates and transfected the next day with 6 μg of plasmid DNA, myc-RIP1 in pRK5 vector. […] Lysates from 6 plates were pooled and divided into equal 300 μL aliquots, into which 7 μg of purified GST-fusion proteins (GST-cIAP1-BIR3 or GST-cIAP2-BIR3) were added in the presence of various concentrations of SMAC mimetic compounds. The tubes were rocked overnight at 4°C, and the next day 20 μL of glutathione-Sepharose beads (GE Healthcare) was added to each tube and the tubes were rocked for an additional 2 h at 4°C. The GST-fusion proteins were recovered by centrifugation at 2,300 g for 30 sec, then washed 3-times in NP-40 lysis buffer. Finally, 20 μL of 2X Laemmli buffer was added and the samples were boiled, then fractionated by SDS-PAGE, followed by immunoblotting using anti-myc antibody (Roche) for detection of myc-RIP1 and anti-GST antibody (BD Biosciences, La Jolla, CA) for detection of GST-fusion proteins.

Data set [8] has as its target T2, myc-RIP1 binding to GST-cIAP2-BIR3 (Homo sapiens, UniProt Q13489).
T2 construct: purified GST-fusion proteins (GST-cIAP1-BIR3 or GST-cIAP2-BIR3) were added; made in house; host or cells: GST fusion: bacteria (as for the other recombinant proteins); myc-RIP1: transfected HEK293T cell lysate
Kind of data set: RIP1 binding, GST pull-down from HEK293T lysates. The conditions noted are these: various concentrations, overnight, 4°C. As to the method: as §3

The target of data set [9] is T3, cIAP1 protein in MDA-MB-231 cells (Homo sapiens, UniProt Q13490).
T3 construct: MDA-MB-231 cells contain abundant levels of cIAP1 protein but little cIAP2 protein; endogenous in cells; host or cells: MDA-MB-231
T3 sequence (Q13490 whole entry): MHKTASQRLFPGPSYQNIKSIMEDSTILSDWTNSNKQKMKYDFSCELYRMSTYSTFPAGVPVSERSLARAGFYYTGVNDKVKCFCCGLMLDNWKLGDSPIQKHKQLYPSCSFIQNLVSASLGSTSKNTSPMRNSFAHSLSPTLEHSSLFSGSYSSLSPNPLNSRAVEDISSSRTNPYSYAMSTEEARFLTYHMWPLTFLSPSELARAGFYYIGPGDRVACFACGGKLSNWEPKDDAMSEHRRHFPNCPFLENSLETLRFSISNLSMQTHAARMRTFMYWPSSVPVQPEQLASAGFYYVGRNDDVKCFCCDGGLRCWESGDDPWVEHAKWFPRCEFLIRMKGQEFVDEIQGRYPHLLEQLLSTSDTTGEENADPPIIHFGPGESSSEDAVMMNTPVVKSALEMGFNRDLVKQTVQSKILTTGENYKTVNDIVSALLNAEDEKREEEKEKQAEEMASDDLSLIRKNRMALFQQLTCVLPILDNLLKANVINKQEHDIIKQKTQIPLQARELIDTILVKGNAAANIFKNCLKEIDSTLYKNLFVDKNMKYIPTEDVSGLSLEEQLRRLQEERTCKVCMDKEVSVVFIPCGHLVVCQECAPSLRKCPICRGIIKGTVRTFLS
Put plainly: Immunoblotting of cIAP1 protein levels in cells. The conditions noted are these: 5 μM, 6 h, immunoblot. The data set is classed as cell-based. As to the method:
To assess the impact of compounds on cIAP1 protein levels in cells, 40,000 MDA-MB-231 cells were cultured in complete medium (RPMI with 10% fetal calf serum and antibiotics) overnight at 37°C in 5% CO2/95% air. The following day compounds at 5 μM (or an equivalent volume of diluent control) were added. After 6 h, cells were recovered by centrifugation, lysed in SDS-sample buffer, and equivolume aliquots of lysates were analyzed by SDS-PAGE/Immunoblotting using antibodies specific for human/mouse cIAP (pan) Mab (clone 315301; R&D Systems #MAB3400) and β-actin (Sigma-Aldrich #A5441) by an enhanced chemiluminescence (ECL) method, essentially as described.
(In western blotting, separated proteins are transferred to a membrane and probed.)

T2 sequence (Q13489 243-333 limits assumed): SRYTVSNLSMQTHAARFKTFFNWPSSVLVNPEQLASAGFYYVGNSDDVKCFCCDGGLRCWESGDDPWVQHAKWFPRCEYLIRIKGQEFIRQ
T1 sequence (Q13490 257-356 limits assumed): as the sequence (Q13490 257-356) above
cIAP1-BIR2, sequence (Q13490 144-260): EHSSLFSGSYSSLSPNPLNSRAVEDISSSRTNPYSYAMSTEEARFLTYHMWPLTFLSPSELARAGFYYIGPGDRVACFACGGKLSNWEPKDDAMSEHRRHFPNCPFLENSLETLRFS
cIAP2-BIR2, sequence (Q13489 129-246): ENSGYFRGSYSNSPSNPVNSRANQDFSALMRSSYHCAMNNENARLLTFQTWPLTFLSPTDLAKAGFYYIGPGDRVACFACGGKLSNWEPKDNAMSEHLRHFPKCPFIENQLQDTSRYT
cIAP2-BIR3, sequence (Q13489 243-333): as the sequence (Q13489 243-333 limits assumed) above

Turning to `CN[C@@H](C)C(=O)N[C@H](C(=O)N[C@@H](C)C(=O)NNc1ccccc1)C(C)C` [compound 23], the “TNF EC50” value in data set [1] is “IN^b”. In addition, the “cytotoxicity against PC-3 cells with TNF” value in [1] (in words) was “essentially no cytotoxicity”. For the same molecule, the Ki – broadly, the equilibrium dissociation constant of an inhibitor or competing ligand from its target – in [2] was 13.6 µM; in data set [3], 7.39 µM; in [5] it was 8.29 µM; in data set [6] it was 6.13 µM and 6.1 µM. The “LT-α EC50” value in data set [4] was “IN^b”. Besides, in data set [4] (in words), the “cytotoxicity against PC-3 cells with LT-α” value was “essentially no cytotoxicity”.

Regarding `CN[C@@H](C)C(=O)N[C@H](C(=O)N1CCC[C@@H]1C(=O)N[C@H]1CCOc2ccccc21)C(C)C` [compound 37, reference compound], the concentration giving a half-maximal response (EC50) (in general, the concentration at which the effect is half-maximal) amounted to 30 nM in [1] and 10 nM in data set [4]. The “inhibition of myc-RIP1 binding to GST-cIAP1-BIR3” value (“inhibition … to GST-cIAP1-BIR3” below) in data set [7] was “inhibited binding”. In [8], the “inhibition of myc-RIP1 binding to GST-cIAP2-BIR3” value (from here on “inhibition … to GST-cIAP2-BIR3”) is listed as “inhibited binding”. The Ki in data set [6] was 0.02 µM.

In the case of `CN[C@@H](C)C(=O)N[C@H](C(=O)N1CSC[C@@H]1C(=O)NC1CCCc2ccccc21)C(C)C` (stereo partly shown) [compound 38, reference compound], the EC50 in data set [1] amounted to 60 nM; in [4], 20 nM. For the same molecule, in data set [7], the “inhibition … to GST-cIAP1-BIR3” value is given as “inhibited binding”. For the same molecule, in data set [8], the “inhibition … to GST-cIAP2-BIR3” value is “inhibited binding”. The “effect on cIAP1 protein levels in cells” value in data set [9] was “caused reductions of cIAP1 protein levels in cells”. The Ki in data set [6] was 0.03 µM.

Consider `CN[C@@H](C)C(=O)N[C@@H](C(=O)N1CCC[C@@H]1C(=O)NNc1cccc(F)c1)C1CCCCC1` [compound 40, reference compound], for which the “TNF EC50” value in data set [1] is reported as “IN^b”. The “inhibition … to GST-cIAP1-BIR3” value in data set [7] is on record as “did not”. Also, the “inhibition … to GST-cIAP2-BIR3” value in data set [8] was “did not”. Besides, the “effect on cIAP1 protein levels in cells” value in data set [9] is given as “did not”. In [4], the “LT-α EC50” value was “IN^b”. Moreover, the Ki in [6] is over 92.4 µM.
